Source: article PMC6156078, “Thalidomide promotes degradation of SALL4, a transcription factor implicated in Duane Radial Ray syndrome” (eLife, 2018)
“Also recorded” adds a separate entry of the source.

What was measured:
chicken embryos = system: chicken embryos; set-up: method as in Ito et al., 2010; conditions: direct application to the limb buds, ref Ito et al., 2010; cited from earlier work
ZFP91 [1] = biological target: T1, ZFP91 (Homo sapiens, UniProt Q96JP5+Q96SW2); assay: TMT proteomics MM1s cells: ZFP91 abundance; conditions: 5 h vs DMSO, thalidomide 10 µM, lenalidomide 5 µM, pomalidomide 1 µM
[2] = system: IMiD-dependent neo-substrates; assay: TMT proteomics profiling of IMiD-dependent neo-substrates (hESC, Kelly, SK-N-DZ, MM1s); type: cell-based, human
Text: (§1) We established a mass spectrometry-based workflow (Figure 1—figure supplement 1A) to detect IMiD-induced protein degradation in hESC.
(§2) Proteins were precipitated using methanol/chloroform.

CYR61 = assay: TMT proteomics H9 hESC: CYR61 abundance; type: cell-based, human; conditions: H9 hES cells, 5 h vs DMSO; thalidomide 10 µM
Text: as §1, §2

PPA1 = assay: TMT proteomics H9 hESC: PPA1 abundance; type: cell-based, human; conditions: H9 hES cells, 5 h vs DMSO; thalidomide 10 µM, lenalidomide 5 µM
Text: as §1, §2

[3] = biological target: hsSALL4ZnF2 / DDB1∆B-CRBN (Homo sapiens, UniProt Q96SW2+Q9UJQ4); assay: TR-FRET IMiD-dependent binding of SALL4ZnF2 to CRBN; conditions: DDB1∆B-CRBN 200 nM, hsSALL4ZnF2 100 nM
Text: The TR-FRET signal of each data point was extracted by calculating the 520/490 nm ratios.

IKZF1 = IKZF1 (Homo sapiens, UniProt Q13422+Q96SW2); assay: TMT proteomics MM1s cells: IKZF1 abundance; conditions: 5 h vs DMSO, thalidomide 10 µM, lenalidomide 5 µM, pomalidomide 1 µM
SALL4 [4] = assay: Western blot of SALL4 in CRBN-/- Kelly and HEK293T cells; type: cell-based, human; conditions: increasing concentrations, 24 h
VRTN = biological target: T2, VRTN (Homo sapiens, UniProt Q9H8Y1); assay: TMT proteomics H9 hESC: VRTN abundance; type: cell-based; conditions: H9 hES cells, 5 h vs DMSO; thalidomide 10 µM, pomalidomide 1 µM
T2 construct: endogenous in cells; host or cells: H9 hESC
T2 sequence (Q9H8Y1 whole entry): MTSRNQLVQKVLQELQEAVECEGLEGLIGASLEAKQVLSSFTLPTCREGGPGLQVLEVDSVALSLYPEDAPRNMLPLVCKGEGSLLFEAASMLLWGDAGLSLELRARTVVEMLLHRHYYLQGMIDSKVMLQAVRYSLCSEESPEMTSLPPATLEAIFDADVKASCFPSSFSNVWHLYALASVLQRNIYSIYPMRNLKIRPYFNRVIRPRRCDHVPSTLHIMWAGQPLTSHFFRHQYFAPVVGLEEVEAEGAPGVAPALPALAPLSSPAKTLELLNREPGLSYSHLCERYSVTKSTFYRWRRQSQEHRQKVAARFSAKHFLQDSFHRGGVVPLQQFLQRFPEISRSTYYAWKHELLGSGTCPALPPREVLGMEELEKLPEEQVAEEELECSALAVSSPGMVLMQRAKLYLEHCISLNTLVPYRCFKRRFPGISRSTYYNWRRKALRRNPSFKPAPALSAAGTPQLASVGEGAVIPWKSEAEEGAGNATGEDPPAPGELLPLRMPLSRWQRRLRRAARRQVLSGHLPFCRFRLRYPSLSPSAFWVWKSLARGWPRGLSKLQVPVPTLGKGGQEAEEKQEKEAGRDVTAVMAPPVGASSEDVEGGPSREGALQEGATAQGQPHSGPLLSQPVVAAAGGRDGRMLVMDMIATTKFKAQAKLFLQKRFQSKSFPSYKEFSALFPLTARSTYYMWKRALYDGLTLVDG
Text: as §1, §2

RAB28 = RAB28 (Homo sapiens, UniProt P51157); assay: TMT proteomics MM1s cells: RAB28 abundance; conditions: 5 h vs DMSO, thalidomide 10 µM, lenalidomide 5 µM, pomalidomide 1 µM
ZFP91 [5] = biological target: T1, ZFP91; assay: TMT proteomics Kelly cells: ZFP91 abundance; conditions: 5 h vs DMSO, thalidomide 10 µM, lenalidomide 5 µM, pomalidomide 1 µM
SALL4 [6] = biological target: T3, SALL4 (Homo sapiens, UniProt Q9UJQ4); assay: Western blot of SALL4 in H9 hESC; type: cell-based; set-up: endogenous in cells; host or cells: Kelly, H9 hESC, SK-N-DZ cells; conditions: increasing doses, 24 h
RPS17; RPS17L = assay: TMT proteomics H9 hESC: RPS17 abundance; type: cell-based, human; conditions: H9 hES cells, 5 h vs DMSO; thalidomide 10 µM
Text: as §1, §2

ZNF827 = ZNF827 (Homo sapiens, UniProt Q17R98+Q96SW2); assay: TMT proteomics Kelly cells: ZNF827 abundance; conditions: 5 h vs DMSO, thalidomide 10 µM, lenalidomide 5 µM, pomalidomide 1 µM
ACAD9 = assay: TMT proteomics Kelly cells: ACAD9 abundance; type: cell-based, human; conditions: 5 h vs DMSO, thalidomide 10 µM
Text: as §2

Flag-hsSALL4^WT = Flag-hsSALL4^WT (Homo sapiens, UniProt Q9UJQ4); assay: Western blot of transfected Flag-hsSALL4 WT in Kelly cells; type: cell-based; conditions: 24 h
Flag-hsSALL4^WT, sequence (Q9UJQ4 whole entry): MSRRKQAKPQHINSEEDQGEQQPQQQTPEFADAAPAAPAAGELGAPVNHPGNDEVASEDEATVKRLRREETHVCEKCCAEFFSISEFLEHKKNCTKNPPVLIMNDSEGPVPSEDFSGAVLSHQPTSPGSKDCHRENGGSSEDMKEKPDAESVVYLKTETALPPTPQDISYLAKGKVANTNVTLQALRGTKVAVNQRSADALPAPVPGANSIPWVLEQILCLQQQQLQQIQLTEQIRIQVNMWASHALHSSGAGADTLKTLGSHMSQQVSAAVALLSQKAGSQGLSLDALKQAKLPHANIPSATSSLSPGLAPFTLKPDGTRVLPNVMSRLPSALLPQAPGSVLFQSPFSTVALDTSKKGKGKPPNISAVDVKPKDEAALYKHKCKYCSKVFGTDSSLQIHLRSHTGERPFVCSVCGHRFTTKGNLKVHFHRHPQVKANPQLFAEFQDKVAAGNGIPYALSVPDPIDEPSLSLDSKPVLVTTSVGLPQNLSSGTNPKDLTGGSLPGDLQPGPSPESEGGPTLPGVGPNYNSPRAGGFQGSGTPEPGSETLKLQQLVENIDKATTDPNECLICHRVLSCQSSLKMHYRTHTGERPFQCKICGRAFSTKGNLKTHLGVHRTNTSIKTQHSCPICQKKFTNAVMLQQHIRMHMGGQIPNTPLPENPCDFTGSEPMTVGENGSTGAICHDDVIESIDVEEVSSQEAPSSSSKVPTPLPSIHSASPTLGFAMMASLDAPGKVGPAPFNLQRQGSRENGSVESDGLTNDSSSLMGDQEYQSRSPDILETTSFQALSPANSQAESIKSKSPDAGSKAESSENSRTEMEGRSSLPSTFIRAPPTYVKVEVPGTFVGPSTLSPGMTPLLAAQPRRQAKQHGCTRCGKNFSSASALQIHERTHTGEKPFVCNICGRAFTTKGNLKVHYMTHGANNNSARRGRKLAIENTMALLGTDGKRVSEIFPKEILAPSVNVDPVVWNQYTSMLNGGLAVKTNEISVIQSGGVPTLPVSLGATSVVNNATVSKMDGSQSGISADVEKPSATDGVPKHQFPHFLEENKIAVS
Protocol: (§3) For transient transfection, 0.2 million cells were seeded per well in a 12 well plate on day 1. On day 2, cells were transfected with 200–300 ng of plasmid (pNTM-Flag containing gene of interest) using 2 µL of lipofectamine 2000 transfection reagent (Invitrogen). On day 3, the desired concentration of IMiD was added to each well and cells were harvested after 24 h for western blot analysis using the protocol described above.

SALL4 [7] = biological target: T3, SALL4; assay: TMT proteomics H9 hESC: SALL4 abundance; type: cell-based; conditions: H9 hES cells, 5 h vs DMSO; thalidomide 10 µM, lenalidomide 5 µM, pomalidomide 1 µM
Text: as §1, §2

SALL4 [8] = biological target: T3, SALL4; assay: Western blot of SALL4 in Kelly, SK-N-DZ, HEK293T and H661 cells; conditions: increasing concentrations, 24 h
[9] = system: Flag-hsSALL4^G600A, hsSALL4^G600N; assay: Western blot of transfected Flag-hsSALL4 G600A/G600N in Kelly cells; type: cell-based, human; conditions: thalidomide, 24 h
Protocol: as §3

SALL4 [10] = biological target: T3, SALL4; assay: TMT proteomics Kelly cells: SALL4 abundance; conditions: 5 h vs DMSO, thalidomide 10 µM, lenalidomide 5 µM, pomalidomide 1 µM
SALL4 mRNA = assay: Quantitative RT-PCR of total SALL4 mRNA in H9 hES cells; type: cell-based, human; conditions: 10 µM thalidomide, 24 h vs DMSO
Protocol: RNA was isolated using the RNeasy Plus mini kit (Qiagen) and cDNA created by reverse transcription using ProtoScript II reverse transcriptase (NEB) following the manufacturer’s instructions. The following primer sets from IDT were used with SYBR Green Master Mix (Applied Biosystems) to probe both GAPDH and total SALL4 levels:
Analysis was performed on a CFX Connect Real-Time PCR System (Bio-Rad) in a white 96-well PCR plate. Relative expression levels were calculated using the ΔΔCT method.

PPP3R1 = assay: TMT proteomics MM1s cells: PPP3R1 abundance; type: cell-based, human; conditions: 5 h vs DMSO, thalidomide 10 µM
Text: as §2

IKZF3 = IKZF3 (Homo sapiens, UniProt Q96SW2+Q9UKT9); assay: TMT proteomics MM1s cells: IKZF3 abundance; conditions: 5 h vs DMSO, thalidomide 10 µM, lenalidomide 5 µM, pomalidomide 1 µM
[11] = 2013, cited from earlier work
mmSALL4 = biological target: T4, mmSALL4 (Mus musculus, UniProt Q8BX22); assay: Western blot of mmSALL4 in mouse embryonic stem cells; type: cell-based; conditions: increasing concentrations, 24 h
T4 construct: endogenous in cells; host or cells: TC1 mouse embryonic stem cells
T4 sequence (Q8BX22 whole entry): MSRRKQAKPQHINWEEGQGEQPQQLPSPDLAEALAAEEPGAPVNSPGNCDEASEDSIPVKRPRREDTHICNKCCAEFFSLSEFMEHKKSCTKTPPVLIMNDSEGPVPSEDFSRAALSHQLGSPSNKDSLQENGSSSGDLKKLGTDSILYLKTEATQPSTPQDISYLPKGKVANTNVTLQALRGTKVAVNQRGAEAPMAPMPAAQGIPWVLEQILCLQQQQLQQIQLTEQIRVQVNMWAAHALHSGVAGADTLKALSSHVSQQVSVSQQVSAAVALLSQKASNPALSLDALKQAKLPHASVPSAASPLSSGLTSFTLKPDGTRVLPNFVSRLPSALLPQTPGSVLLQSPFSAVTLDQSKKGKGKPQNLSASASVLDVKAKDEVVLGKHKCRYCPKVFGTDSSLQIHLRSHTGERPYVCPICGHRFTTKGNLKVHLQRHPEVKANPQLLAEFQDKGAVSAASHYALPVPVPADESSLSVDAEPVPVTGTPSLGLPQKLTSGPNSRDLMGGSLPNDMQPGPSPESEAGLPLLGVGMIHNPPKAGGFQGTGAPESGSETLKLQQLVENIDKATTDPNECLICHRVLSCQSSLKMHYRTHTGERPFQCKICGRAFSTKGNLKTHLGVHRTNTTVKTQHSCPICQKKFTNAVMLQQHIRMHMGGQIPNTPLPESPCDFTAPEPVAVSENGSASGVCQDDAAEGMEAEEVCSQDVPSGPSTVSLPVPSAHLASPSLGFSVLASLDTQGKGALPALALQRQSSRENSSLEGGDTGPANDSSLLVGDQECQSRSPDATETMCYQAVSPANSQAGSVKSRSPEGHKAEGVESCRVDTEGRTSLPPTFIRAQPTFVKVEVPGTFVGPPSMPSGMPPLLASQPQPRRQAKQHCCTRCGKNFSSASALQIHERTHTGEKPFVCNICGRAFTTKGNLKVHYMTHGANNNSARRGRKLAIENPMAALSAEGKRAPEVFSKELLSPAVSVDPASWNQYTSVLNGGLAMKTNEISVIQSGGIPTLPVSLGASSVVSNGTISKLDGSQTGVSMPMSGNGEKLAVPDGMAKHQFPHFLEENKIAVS

[12] = biological target: Flag-mmSALL4 containing a humanized ZnF2 (Y415F, P418S, I419V, L430F, Q435H) (UniProt Q8BX22+Q96SW2, I419V/L434F/P418S/Q435H/Y415F); assay: Western blot of Flag-mmSALL4 with humanized ZnF2 in Kelly cells; type: cell-based, mouse; conditions: thalidomide, 24 h
Protocol: as §3

[13] = system: Flag-hsSALL4^G416A, Flag-hsSALL4^G416N; assay: Western blot of transfected Flag-hsSALL4 G416A/G416N in Kelly cells; type: cell-based, human; conditions: thalidomide, 24 h
Protocol: as §3

ZNF692 = ZNF692 (Homo sapiens, UniProt Q96SW2+Q9BU19); assay: TMT proteomics Kelly cells: ZNF692 abundance; conditions: 5 h vs DMSO, thalidomide 10 µM, lenalidomide 5 µM, pomalidomide 1 µM
zebrafish embryos = system: zebrafish embryos; set-up: method as in Ito et al., 2010; conditions: ref Ito et al., 2010; cited from earlier work
SALL4 [14] = assay: Western blot of SALL4: thalidomide with proteasome/NEDD8/UBA1 inhibitor co-treatment; conditions: Kelly, HEK293T, SK-N-DZ cells; thalidomide + 5 µM bortezomib, 5 µM MLN4924 or 0.5 µM MLN7243, 24 h
IMiD-dependent targets = assay: Rescue proteomics: pomalidomide with MLN4924 co-treatment in SK-N-DZ cells; conditions: 1 µM pomalidomide + 5 µM MLN4924, 5 h
ATP5C1 = assay: TMT proteomics SK-N-DZ cells: ATP5C1 abundance; conditions: 5 h vs DMSO, CC-220 0.1 µM
CISD2 = assay: TMT proteomics SK-N-DZ cells: CISD2 abundance; conditions: 5 h vs DMSO, CC-220 0.1 µM
ZFP91 [15] = biological target: T1, ZFP91; assay: TMT proteomics SK-N-DZ cells: ZFP91 abundance; conditions: 5 h vs DMSO, pomalidomide 1 µM, lenalidomide 5 µM, CC-220 0.1 µM, dBET57 1 µM
MRPL3 = assay: TMT proteomics SK-N-DZ cells: MRPL3 abundance; conditions: 5 h vs DMSO, CC-220 0.1 µM
MRPS5 = assay: TMT proteomics SK-N-DZ cells: MRPS5 abundance; conditions: 5 h vs DMSO, CC-220 0.1 µM

In the case of `O=C1CCC(N2C(=O)c3ccccc3C2=O)C(=O)N1` (centres unmarked) [thalidomide], the “dose found to be teratogenic” value (chicken embryos) is listed as 400 µM, the “logFC ZFP91” value (ZFP91 [1]) is listed as -0.6875 and the “number of substrates identified (rank order)” value ([2]; H9 hESC proteomics) is listed as “Thal < Len << Pom”. The “substrates robustly degraded (each drug in addition to the preceding one)” value ([2]; proteomics across hESC, MM1s, Kelly, SK-N-DZ cells) was “ZNF692, SALL4, and the ubiquitin ligase RNF166”, the “logFC CYR61” value (CYR61) was 0.4402 and the “logFC PPA1” value (PPA1) was -0.1282. For the same compound, the “rank order in binding observed with ZnF2” value [3] was “Pom >Thal >> Len”, the “logFC IKZF1” value (IKZF1) was -0.3052 and the “SALL4 degradation in CRBN-/- cells” value (SALL4 [4]) was “no degradation of SALL4 was observed”. The “logFC VRTN” value (VRTN) was -0.4098, the “logFC RAB28” value (RAB28) was -0.4948 and the “logFC ZFP91” value (ZFP91 [5]) was -0.2749. The “SALL4 protein levels (western blot)” value (SALL4 [6]) was “dose-dependent decrease in protein levels”, the “logFC RPS17; RPS17L” value (RPS17; RPS17L) was -0.1321 and the “logFC ZNF827” value (ZNF827) was -0.4132. The “logFC ACAD9” value (ACAD9) was 0.09357, the “degradation of ectopically expressed Flag-hsSALL4 wild type” value (Flag-hsSALL4^WT) was “readily degraded” and the “logFC SALL4” value (SALL4 [7]) was -1.582. For the same compound, the “SALL4 protein levels (western blot)” value (SALL4 [8]) was “dose-dependent decrease in SALL4 protein levels”, the “degradation of Flag-SALL4 with G600A or G600N mutations in ZnF4” value [9] was “readily degraded” and the “logFC SALL4” value (SALL4 [10]) was -1.628. For the same compound, the “SALL4 mRNA level (qPCR, normalized to GAPDH)” value (SALL4 mRNA) was “upregulates SALL4 mRNA”, the “SALL4 mRNA level (qPCR, normalized to GAPDH)” value (SALL4 mRNA; listed as Thalidomide) was “did not influence the expression of SALL4 mRNA” and the “logFC PPP3R1” value (PPP3R1) was -0.2263. The “logFC IKZF3” value (IKZF3) was -0.3448, the “plasma concentration in humans” value ([11]; ref Bai et al., Dahut et al., 2009) was ≤ 10 µM and the Cmax ([11]; typical dose 200–400 mg thalidomide, 25 mg lenalidomide, 2 mg pomalidomide, ref Chen et al., 2017, Hoffmann et al., Teo et al., 2004, read-out: maximum plasma concentration (Cmax)) was 5 to 10 µM. For the same compound, the “degradation of mmSALL4 in mESC” value (mmSALL4) was “does not promote degradation of mmSALL4”, the “degradation of mmSALL4 with humanized ZnF2 domain” value [12] was “induce thalidomide-mediated mouse SALL4 degradation” and the “degradation of Flag-SALL4 with G416A or G416N mutations in ZnF2” value [13] was “rendered SALL4 stable”. The “logFC ZNF692” value (ZNF692) was -2.248 and the “dose found to be teratogenic” value (zebrafish embryos) was 400 µM.
For `NS(=O)(=O)OC[C@@H]1C[C@@H](n2ccc3c(N[C@H]4CCc5ccccc54)ncnc32)C[C@@H]1O` [MLN4924], the “effect of co-treatment on IMiD-induced SALL4 degradation” value (SALL4 [14]) was “abrogated” and the “effect of co-treatment on IMiD-induced degradation of targets” value (IMiD-dependent targets) was “abrogated the degradation of all IMiD-dependent targets; also recorded: fully abrogated”.
For `O=C1CC[C@H](N2Cc3c(OCc4ccc(CN5CCOCC5)cc4)cccc3C2=O)C(=O)N1` [CC-220], the “logFC ATP5C1” value (ATP5C1) was -0.1591, the “induction of degradation of ZnF targets including SALL4” value ([2]; SK-N-DZ cells, 0.1 µM CC-220, 5 h (Figure 1—figure supplement 1C)) was “effective inducers of ZnF targets including SALL4 degradation” and the “logFC CISD2” value (CISD2) was -0.1946. For the same compound, the “logFC ZFP91” value (ZFP91 [15]) was -2.809, the “logFC MRPL3” value (MRPL3) was -0.1878 and the “logFC MRPS5” value (MRPS5) was -0.1562.
With `CC(C)C[C@H](NC(=O)[C@H](Cc1ccccc1)NC(=O)c1cnccn1)B(O)O` [bortezomib] the “effect of co-treatment on IMiD-induced SALL4 degradation” value (SALL4 [14]) was “abrogated”.
